According to US10251874B2, “Crystalline forms of a JAK inhibitor compound” (THERAVANCE BIOPHARMA R&D IP, LLC, priority 2017, dated 2019):

Assays:
[1] = tested on: IL-2/anti-CD3 stimulated IFNγ in human PBMCs; assay: Assay 3: Inhibition of IL-2/anti-CD3 stimulated IFNγ in human PBMCs; type: cell-based; conditions: PBMC, 24 h stimulation, ELISA, read-out: pIC50, inhibition of IL-2/anti-CD3 stimulated IFNγ (converted)
Source text: Data are expressed as pIC50 (negative decadic logarithm IC50) values.

[2] = tested on: IL-27 induced CXCL10 secretion in EpiAirway tissue cultures; assay: Assay 15: IL-27 induced CXCL10 in human 3D airway cultures; type: cell-based; conditions: 192 h, Day 8, average from 3 or 4 donors, read-out: % inhibition of IL-27 induced CXCL10 secretion (±STDV)
Method: EpiAirway tissue cultures were obtained from Mattek (AIR-100). Cultures were derived from asthmatic donors. In a cell culture insert, human derived tracheal/bronchial epithelial cells were grown and differentiated on a porous membrane support, allowing an air-liquid interface with warmed culture medium below the cells and a gaseous test atmosphere above. Tissues were cultured in maintenance media (Mattek, AIR-100-MM) in a 37° C., 5% CO2 humidified incubator. Four donors were tested. On Day 0, tissue cultures were treated with test compounds at 10 μM, 1 μM and/or 0.1 μM. Compounds were diluted in dimethyl sulfoxide (DMSO, Sigma) to a final concentration of 0.1%. DMSO at 0.1% was used as a vehicle control. Test compounds were incubated with cultures for 1 hour at 37° C., 5% CO2, followed by the addition of pre-warmed media containing IFNγ (R&D Systems) or IL-27 (R&D Systems) at a final concentration at 100 ng/ml. Tissue cultures were maintained for 8 days. Media was replaced every 2 days with fresh media containing compounds and IFNγ or IL-27. On Day 8, tissue cultures and supernatants were collected for analysis. Supernatant samples were assayed for CXCL10 (IP-10) and CXCL9 (MIG) using luminex analysis (EMD Millipore). Data is expressed as % Inhibition +/−standard deviation (±STDV). Percent inhibition was determined by compound inhibitory potency against IFNγ or IL-27 induced CXCL10 or CXCL9 secretion compared to vehicle treated cells. Data is the average from 3 or 4 donors. Compound 1 was able to inhibit IFNγ induced CXCL10 secretion by 99%±2.0 (at 10 μM), 71%±19 (at […]) and 17%±12 (at 0.1 μM) when compared to vehicle control. Compound 1 was able to inhibit IFNγ induced CXCL9 secretion by 100%±0.3 (at 10 μM), 99%±0.9 (at 1 μM) and 74%±17 (at 0.1 μM) when compared to vehicle. […] Compound 1 was able to inhibit IL-27 induced CXCL9 secretion by 100%±0 (at 10 μM), 95%±3.7 (at 1 μM) and 75%±3.5 (at 0.1 μM) when compared to vehicle control.

JAK3 = target: T1, JAK3 (Homo sapiens, UniProt P52333); assay: Assay 1: LanthaScreen biochemical JAK kinase assay, JAK3; conditions: converted from pIC50 by Cheng-Prusoff; ATP at Km 1.6 μM; read-out: JAK 3 pKi (converted)
T1 construct: GST; purchased Life Technologies
T1 sequence (P52333 1-1124): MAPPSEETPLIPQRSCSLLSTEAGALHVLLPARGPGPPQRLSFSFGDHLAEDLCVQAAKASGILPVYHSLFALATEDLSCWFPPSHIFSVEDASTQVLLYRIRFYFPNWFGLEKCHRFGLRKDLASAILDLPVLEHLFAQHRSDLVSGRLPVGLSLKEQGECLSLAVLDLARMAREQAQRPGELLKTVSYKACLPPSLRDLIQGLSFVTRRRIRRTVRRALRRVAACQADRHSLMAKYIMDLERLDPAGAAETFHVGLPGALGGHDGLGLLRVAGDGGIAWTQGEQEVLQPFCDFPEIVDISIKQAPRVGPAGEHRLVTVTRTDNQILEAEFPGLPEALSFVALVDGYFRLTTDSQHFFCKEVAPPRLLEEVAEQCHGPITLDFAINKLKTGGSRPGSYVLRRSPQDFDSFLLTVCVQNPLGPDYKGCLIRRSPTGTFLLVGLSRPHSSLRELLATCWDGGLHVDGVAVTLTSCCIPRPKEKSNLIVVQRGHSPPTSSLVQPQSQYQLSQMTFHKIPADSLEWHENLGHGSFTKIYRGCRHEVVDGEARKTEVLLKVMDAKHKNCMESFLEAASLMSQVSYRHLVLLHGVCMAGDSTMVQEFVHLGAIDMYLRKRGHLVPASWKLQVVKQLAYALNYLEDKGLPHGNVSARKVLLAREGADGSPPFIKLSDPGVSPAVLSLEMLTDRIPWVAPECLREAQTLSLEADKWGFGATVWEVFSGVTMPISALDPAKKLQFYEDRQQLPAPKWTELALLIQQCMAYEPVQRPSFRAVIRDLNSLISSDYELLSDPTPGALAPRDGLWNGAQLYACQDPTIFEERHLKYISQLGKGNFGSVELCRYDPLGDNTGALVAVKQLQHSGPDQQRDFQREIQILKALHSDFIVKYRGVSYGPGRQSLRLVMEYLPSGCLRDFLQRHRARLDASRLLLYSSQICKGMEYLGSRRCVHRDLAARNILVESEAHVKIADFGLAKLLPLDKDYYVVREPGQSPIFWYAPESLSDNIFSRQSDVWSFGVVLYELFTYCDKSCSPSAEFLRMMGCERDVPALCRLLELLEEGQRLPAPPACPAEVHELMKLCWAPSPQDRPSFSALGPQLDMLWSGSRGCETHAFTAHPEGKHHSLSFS
Method: A panel of four LanthaScreen JAK biochemical assays (JAK1, 2, 3 and Tyk2) were carried in a common kinase reaction buffer (50 mM HEPES, pH 7.5, 0.01% Brij-35, 10 mM MgCl2, and 1 mM EGTA). Recombinant GST-tagged JAK enzymes and a GFP-tagged STAT1 peptide substrate were obtained from Life Technologies.
ATP was subsequently added to initiate the kinase reactions in 10 μL total volume, with 1% DMSO. […] Kinase reactions were allowed to proceed for 1 hour at ambient temperature before a 10 μL preparation of EDTA (10 mM final concentration) and Tb-anti-pSTAT1 (pTyr701) antibody (Life Technologies, 2 nM final concentration) in TR-FRET dilution buffer (Life Technologies) was added. […] Emission ratio signals (520 nm/495 nm) were recorded and utilized to calculate the percent inhibition values based on DMSO and background controls.
For dose-response analysis, percent inhibition data were plotted vs. compound concentrations, and IC50 values were determined from a 4-parameter robust fit model with the Prism software (GraphPad Software).

## CCc1cc(O)c(F)cc1-c1ccc2c(-c3nc4c([nH]3)CCN(C3CCN(C)CC3)C4)n[nH]c2c1 [Compound 1, 5-ethyl-2-fluoro-4-(3-(5-(1-methylpiperidin-4-yl)-4,5,6,7-tetrahydro-1H-imidazo[4,5-c]pyridin-2-yl)-1H-indazol-6-yl)phenol]
[1]
  IC50: ~50.1 nM
[2]; at 0.1 μM
  inhibition at 0.1 µM: 73%
[2]; at 1 μM
  inhibition at 1 µM: 98%
[2]; at 10 μM
  inhibition at 10 µM: 108%
JAK3
  Ki: 0.2 nM
